Measurements reported in US20240238445A1, “INHIBITORS AND USES THEREOF” (NEURACLE SCIENCE CO., LTD., priority 2021, published 2024).
Square brackets hold non-standard residues; d marks the D form. Ends that are not written are not given here.

Test system: hippocampal neurons co-treated with toxic Aβ oligomer
Assay: Amyloid beta-induced synapse loss in mouse primary hippocampal neurons
Format: cell-based
Settings: 6.6 nM
Protocol: Alzheimer's disease (AD) is tightly associated with the dysmetabolism of amyloid-β (Aβ). To begin assessing whether the polypeptides provided herein (i.e., comprising the FAM19A5 binding domain of LRRC4 protein family members) could have any therapeutic effects on AD, the effect of various FB-21 peptide fragments described herein on the deformation of synapse induced by toxic Aβ oligomer and following structural recovery was assessed. Specifically, the following FB-21 peptide fragments were tested: FB-21, FB-JM-31 and FB-BBB-39 (see Example 10).
Aβ42 (#20276) peptide was purchased from AnaSpec (Fremont, USA). […]
Hippocampal neurons were treated with 6.6 nM FB-21, 6.6 nM of FB-13-JM and 6.6 nM of FB-13-BBBX2 at 14, 17 and 20 DIV to determine the level of synaptogenesis at 21 DIV by immunostaining SYP, a presynapse marker protein and PSD95, a postsynapse marker protein. To quantify fluorescence intensity for SYN and PSD95 and number of colocalized voxels between SYN and PSD95 signals, z-stack confocal images of 3 μm in depth were converted to 3D images using IMARIS software (IMARIS9.0, Bitplane AG, Zurich, Switzerland). The “Surface tool” of the IMARIS software was used to exclude all the signals detected in neuronal cell bodies, and number of colocalized voxels between SYN and PSD95 signals in neurites were calculated using the “Coloc tool”. […]

Substance: nYTYFTTVTVETLETQPGEEALDEVMKTTKa ([dN]YTYFTTVTVETLETQPGEEALDEVMKTTK[dA]; also: terminal modifications n and a on first and last residues) [FB peptide with JM sequence]
- colocalized voxels for PSD95 and synaptophysin: significant increase in colocalized voxels
